Reference: article doi:[…]/2023.10.03.560722, “Drug Discovery in Low Data Regimes: Leveraging a Computational Pipeline for the Discovery of Novel SARS-CoV-2 Nsp14-MTase Inhibitors” (bioRxiv, 2024)
Where two headings read alike, the source gives them in different places.

Legend:
Assay type in all cases: biochemical
[1] = biological target: SARS-CoV-2 nsp14 MTase (Severe acute respiratory syndrome coronavirus 2, UniProt P0DTD1); assay: biochemical
[2] = biological target: T1, G9a (Homo sapiens, UniProt Q96KQ7); assay: human MTase selectivity panel
T1 sequence (Q96KQ7 1-1210): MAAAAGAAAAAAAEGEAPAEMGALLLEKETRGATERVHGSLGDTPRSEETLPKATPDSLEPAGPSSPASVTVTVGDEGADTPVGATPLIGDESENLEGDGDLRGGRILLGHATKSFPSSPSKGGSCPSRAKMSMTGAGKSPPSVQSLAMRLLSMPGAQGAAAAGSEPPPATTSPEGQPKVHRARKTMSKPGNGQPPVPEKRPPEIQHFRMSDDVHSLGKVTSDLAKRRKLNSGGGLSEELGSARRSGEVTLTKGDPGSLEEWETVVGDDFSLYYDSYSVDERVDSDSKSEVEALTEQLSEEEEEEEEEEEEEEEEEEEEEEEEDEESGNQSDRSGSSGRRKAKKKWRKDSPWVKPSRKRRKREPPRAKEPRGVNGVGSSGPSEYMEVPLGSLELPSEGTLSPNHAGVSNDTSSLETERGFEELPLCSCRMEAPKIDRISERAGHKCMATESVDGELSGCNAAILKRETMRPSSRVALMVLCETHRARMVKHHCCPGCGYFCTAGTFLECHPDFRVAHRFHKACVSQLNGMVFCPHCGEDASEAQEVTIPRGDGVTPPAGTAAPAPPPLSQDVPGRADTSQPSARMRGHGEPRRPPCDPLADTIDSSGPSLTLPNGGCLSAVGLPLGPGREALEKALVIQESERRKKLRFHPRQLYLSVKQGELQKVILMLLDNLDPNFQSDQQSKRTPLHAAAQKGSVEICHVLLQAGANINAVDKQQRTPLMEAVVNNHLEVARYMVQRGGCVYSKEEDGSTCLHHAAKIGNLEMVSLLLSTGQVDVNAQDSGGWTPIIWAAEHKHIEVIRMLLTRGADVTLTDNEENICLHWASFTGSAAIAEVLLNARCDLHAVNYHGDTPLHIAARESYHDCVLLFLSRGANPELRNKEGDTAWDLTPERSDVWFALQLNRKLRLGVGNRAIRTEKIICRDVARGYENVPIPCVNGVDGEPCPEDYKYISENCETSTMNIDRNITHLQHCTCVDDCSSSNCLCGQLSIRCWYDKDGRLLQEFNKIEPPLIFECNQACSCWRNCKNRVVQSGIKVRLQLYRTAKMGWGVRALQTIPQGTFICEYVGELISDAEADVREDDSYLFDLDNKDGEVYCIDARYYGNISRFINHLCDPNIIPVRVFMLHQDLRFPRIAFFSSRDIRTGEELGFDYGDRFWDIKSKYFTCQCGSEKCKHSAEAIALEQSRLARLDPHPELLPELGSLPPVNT

[3] = biological target: SUV420H1 (Homo sapiens, UniProt Q4FZB7); assay: human MTase selectivity panel
SUV420H1, sequence (Q4FZB7 whole entry): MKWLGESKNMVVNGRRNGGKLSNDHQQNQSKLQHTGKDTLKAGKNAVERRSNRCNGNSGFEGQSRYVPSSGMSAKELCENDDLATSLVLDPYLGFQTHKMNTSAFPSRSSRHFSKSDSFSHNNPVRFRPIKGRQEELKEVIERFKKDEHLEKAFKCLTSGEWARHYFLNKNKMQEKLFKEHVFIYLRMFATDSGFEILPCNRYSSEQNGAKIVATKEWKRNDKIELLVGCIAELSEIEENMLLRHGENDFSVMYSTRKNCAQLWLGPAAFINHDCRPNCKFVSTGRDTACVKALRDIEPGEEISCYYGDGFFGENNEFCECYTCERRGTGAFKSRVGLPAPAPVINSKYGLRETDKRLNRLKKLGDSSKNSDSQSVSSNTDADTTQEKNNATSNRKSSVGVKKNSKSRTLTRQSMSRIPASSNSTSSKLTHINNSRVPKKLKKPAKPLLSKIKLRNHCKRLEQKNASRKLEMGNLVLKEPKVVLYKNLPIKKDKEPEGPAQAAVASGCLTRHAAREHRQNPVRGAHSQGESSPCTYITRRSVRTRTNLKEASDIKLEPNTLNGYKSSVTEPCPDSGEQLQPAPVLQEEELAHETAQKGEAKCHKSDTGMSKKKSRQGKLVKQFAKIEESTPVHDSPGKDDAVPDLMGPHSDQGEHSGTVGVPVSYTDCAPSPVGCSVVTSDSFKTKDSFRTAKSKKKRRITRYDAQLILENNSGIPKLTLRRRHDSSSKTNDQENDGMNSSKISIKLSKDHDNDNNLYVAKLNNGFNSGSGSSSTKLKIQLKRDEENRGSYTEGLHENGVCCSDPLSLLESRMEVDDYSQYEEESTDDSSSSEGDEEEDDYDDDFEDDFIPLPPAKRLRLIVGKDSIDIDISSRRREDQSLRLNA

[4] = biological target: T2, SETD8 (Homo sapiens, UniProt Q9NQR1); assay: human MTase selectivity panel
T2 sequence (Q9NQR1 1-393): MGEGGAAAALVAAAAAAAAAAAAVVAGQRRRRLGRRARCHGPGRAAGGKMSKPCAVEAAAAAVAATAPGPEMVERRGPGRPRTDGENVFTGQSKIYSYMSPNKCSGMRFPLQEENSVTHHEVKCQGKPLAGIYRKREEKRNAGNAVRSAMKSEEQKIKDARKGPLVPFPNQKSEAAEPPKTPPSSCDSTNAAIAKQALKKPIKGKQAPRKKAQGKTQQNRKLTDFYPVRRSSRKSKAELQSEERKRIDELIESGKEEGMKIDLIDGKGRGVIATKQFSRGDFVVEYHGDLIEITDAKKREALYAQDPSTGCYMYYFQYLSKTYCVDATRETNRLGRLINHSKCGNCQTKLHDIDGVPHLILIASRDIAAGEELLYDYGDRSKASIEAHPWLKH

[5] = biological target: MLL3 (Homo sapiens, UniProt Q8NEZ4); assay: human MTase selectivity panel
[6] = biological target: EZH2 (Homo sapiens, UniProt Q15910); assay: human MTase selectivity panel
EZH2, sequence (Q15910 whole entry): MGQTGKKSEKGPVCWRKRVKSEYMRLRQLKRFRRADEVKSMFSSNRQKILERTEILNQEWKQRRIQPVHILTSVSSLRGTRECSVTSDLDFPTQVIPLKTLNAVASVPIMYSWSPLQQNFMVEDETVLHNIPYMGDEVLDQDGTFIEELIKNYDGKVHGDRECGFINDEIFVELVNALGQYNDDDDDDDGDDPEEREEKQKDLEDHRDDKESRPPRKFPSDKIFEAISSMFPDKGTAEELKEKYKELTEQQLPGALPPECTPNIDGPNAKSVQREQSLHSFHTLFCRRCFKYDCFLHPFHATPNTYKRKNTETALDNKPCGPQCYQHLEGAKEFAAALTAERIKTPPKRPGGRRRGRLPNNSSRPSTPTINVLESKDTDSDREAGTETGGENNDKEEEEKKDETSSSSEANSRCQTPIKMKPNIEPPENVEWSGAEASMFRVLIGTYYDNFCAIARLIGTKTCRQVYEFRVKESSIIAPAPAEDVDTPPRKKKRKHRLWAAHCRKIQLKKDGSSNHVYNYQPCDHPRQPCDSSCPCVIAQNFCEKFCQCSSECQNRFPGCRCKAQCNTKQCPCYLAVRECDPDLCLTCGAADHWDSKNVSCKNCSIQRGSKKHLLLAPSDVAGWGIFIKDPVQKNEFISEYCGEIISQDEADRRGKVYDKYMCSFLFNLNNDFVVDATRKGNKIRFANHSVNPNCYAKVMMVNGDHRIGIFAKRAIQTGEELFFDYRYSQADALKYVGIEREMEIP
EZH2, sequence (O75530 whole entry partner): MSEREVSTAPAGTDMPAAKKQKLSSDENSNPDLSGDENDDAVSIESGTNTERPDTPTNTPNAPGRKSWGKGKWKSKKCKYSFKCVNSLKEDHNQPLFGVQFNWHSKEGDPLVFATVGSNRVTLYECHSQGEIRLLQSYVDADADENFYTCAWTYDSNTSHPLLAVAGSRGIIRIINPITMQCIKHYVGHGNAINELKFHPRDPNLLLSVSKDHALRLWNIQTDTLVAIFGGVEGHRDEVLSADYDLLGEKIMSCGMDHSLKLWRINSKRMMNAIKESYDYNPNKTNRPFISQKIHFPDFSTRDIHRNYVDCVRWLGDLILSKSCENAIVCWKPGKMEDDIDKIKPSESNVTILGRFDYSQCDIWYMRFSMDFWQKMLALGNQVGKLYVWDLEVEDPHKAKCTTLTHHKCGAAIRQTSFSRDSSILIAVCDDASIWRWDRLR
EZH2, sequence (Q15022 whole entry partner): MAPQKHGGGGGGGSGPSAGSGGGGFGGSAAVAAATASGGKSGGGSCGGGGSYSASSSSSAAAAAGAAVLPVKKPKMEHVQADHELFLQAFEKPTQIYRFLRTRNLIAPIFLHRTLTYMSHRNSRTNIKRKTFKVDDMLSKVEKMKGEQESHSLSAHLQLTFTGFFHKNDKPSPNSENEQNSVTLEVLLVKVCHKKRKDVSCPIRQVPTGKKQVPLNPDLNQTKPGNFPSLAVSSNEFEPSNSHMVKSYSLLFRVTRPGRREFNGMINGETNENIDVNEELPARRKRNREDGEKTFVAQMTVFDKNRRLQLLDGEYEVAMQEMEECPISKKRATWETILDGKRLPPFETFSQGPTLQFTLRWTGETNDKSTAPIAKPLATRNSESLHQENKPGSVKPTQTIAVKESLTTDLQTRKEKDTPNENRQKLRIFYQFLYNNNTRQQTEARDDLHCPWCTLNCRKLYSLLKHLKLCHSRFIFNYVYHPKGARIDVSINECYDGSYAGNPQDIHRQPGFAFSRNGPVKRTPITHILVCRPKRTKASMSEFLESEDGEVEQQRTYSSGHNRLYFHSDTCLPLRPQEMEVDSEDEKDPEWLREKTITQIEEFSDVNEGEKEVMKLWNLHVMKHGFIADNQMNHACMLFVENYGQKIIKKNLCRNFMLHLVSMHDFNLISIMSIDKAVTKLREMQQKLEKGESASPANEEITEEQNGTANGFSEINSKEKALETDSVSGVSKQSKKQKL

[7] = biological target: DOT1L (Homo sapiens, UniProt Q8TEK3); assay: human MTase selectivity panel
DOT1L, sequence (Q8TEK3 whole entry): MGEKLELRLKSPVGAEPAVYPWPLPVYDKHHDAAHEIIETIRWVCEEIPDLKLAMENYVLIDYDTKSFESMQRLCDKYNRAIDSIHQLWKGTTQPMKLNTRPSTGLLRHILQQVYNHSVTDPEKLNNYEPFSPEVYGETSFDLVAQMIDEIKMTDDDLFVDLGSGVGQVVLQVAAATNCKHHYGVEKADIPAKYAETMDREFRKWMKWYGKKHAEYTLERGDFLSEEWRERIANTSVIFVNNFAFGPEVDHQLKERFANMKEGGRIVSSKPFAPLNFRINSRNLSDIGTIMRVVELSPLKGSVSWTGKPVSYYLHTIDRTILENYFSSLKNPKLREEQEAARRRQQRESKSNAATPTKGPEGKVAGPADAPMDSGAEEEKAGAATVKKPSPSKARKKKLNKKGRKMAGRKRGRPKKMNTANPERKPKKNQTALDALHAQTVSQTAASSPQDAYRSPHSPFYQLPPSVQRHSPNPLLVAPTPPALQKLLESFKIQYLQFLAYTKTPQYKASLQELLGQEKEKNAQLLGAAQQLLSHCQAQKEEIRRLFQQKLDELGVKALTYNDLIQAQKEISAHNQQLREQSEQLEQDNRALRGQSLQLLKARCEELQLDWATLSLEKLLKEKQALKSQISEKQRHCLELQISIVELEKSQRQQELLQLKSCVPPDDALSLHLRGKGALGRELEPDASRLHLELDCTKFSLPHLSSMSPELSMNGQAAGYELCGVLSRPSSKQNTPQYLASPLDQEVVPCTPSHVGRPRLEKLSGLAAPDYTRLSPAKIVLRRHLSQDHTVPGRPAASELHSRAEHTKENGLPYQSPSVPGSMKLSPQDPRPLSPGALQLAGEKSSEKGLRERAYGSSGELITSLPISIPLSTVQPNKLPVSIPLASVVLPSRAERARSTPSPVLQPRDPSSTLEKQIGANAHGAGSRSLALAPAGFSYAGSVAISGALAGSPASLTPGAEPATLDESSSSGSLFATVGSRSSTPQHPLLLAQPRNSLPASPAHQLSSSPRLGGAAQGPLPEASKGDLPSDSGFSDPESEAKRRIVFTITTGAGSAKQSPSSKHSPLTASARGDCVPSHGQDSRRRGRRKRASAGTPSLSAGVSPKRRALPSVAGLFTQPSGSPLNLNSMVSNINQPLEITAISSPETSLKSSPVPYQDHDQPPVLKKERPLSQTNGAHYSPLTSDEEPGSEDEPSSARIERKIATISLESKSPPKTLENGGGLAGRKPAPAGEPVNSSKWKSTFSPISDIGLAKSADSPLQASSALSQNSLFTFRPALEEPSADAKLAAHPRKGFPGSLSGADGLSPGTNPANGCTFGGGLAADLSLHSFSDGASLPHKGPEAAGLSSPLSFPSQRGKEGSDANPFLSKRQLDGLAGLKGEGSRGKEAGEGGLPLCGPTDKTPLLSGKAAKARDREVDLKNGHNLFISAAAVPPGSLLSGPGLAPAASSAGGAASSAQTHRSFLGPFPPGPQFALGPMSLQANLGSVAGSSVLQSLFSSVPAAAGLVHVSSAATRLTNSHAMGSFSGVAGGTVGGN

[8] = average ± SD, read-out: Activity (%) at 10 µM Average
[9] = read-out: Activity (%) at 10 µM Replicate 1
[10] = read-out: Activity (%) at 10 µM Replicate 2
[11] = read-out: Activity (%) at 10 µM Replicate 3

In the case of `Nc1ncnc2c1ncn2[C@@H]1O[C@H](CSCc2ccc(Cl)cc2)[C@@H](O)[C@H]1O` [NSC620333], the IC50 ([1]; IC50 (µM), nsp14 MTase activity, high-throughput screening follow-up) is reported as 5 µM, the IC50 ([1]; IC50, at Km of both SAM and RNA substrates, mean ± SD, n = 3) is reported as 5.3 ± 1 µM and the “mechanism of action with respect to RNA substrate” value ([1]; IC50 at varying RNA (31 to 500 nM), fixed SAM 1.25 µM) is reported as “noncompetitive”. For the same compound, the “mechanism of action with respect to SAM” value ([1]; IC50 at varying SAM (0.15 to 2.5 µM), fixed RNA 0.25 µM) was “SAM competitive”, the “inhibition of nsp14, batch retesting” value ([1]; custom-ordered, highly purified (>99%) sample) was “more pronounced inhibition” and the inhibition at 100 µM ([1]; read-out: nsp14 Inhibition % (100µM) Exp 1) was 100%. For the same compound, the inhibition at 100 µM ([1]; read-out: nsp14 Inhibition % (100µM) Exp 2) was 99%, the activity at 10 µM [2, 8] was 89 ± 9% and the activity at 10 µM [2, 9] was 97%. It also gave an activity at 10 µM [2, 10] of 79%, an activity at 10 µM [2, 11] of 91% and an activity at 10 µM [3, 8] of 93 ± 8%. The activity at 10 µM [3, 9] was 84%, the activity at 10 µM [3, 10] was 97% and the activity at 10 µM [3, 11] was 98%. The activity at 10 µM [4, 8] was 85 ± 6%, the activity at 10 µM [4, 9] was 79% and the activity at 10 µM [4, 10] was 90%. For the same compound, the activity at 10 µM [4, 11] was 86%, the activity at 10 µM [5, 8] was 51 ± 6% and the activity at 10 µM [5, 9] was 44%. It also gave an activity at 10 µM [5, 10] of 57%, an activity at 10 µM [5, 11] of 53% and an activity at 10 µM [6, 8] of 96 ± 5%. The activity at 10 µM [6, 9] was 101%, the activity at 10 µM [6, 10] was 90% and the activity at 10 µM [6, 11] was 98%. It also gave an activity at 10 µM [7, 8] of 93 ± 9%, an activity at 10 µM [7, 9] of 103% and an activity at 10 µM [7, 10] of 90%. It also gave an activity at 10 µM [7, 11] of 86%.
